In series [1] the target is T1, LXRalpha (Oxysterols receptor LXR-alpha) (Homo sapiens, UniProt Q13133).
T1 sequence (Q13133 whole entry): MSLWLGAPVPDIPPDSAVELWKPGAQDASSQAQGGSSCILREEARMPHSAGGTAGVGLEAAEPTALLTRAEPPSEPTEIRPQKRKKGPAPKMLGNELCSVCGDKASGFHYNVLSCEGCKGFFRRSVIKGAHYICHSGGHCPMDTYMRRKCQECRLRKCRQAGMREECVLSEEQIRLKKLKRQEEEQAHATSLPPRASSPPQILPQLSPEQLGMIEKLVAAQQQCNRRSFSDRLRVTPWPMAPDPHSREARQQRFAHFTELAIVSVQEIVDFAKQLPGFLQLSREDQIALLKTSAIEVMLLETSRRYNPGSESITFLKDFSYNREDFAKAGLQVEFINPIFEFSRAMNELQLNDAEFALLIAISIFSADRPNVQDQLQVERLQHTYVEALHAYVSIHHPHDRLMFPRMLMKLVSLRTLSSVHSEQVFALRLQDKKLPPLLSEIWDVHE
Nature of the series: Agonist activity at human LXRalpha transfected in HEK293T cells at 10 uM incubated for 20 hrs by luciferase reporter gene assay relative to control. It is filed as cell-based. Particulars: HEK293T cells transfected with human LXRalpha, read-out: FC.

In series [2] the target is T2, Oxysterols receptor LXR-beta (Rattus norvegicus) (UniProt Q62755).
T2 sequence (whole entry): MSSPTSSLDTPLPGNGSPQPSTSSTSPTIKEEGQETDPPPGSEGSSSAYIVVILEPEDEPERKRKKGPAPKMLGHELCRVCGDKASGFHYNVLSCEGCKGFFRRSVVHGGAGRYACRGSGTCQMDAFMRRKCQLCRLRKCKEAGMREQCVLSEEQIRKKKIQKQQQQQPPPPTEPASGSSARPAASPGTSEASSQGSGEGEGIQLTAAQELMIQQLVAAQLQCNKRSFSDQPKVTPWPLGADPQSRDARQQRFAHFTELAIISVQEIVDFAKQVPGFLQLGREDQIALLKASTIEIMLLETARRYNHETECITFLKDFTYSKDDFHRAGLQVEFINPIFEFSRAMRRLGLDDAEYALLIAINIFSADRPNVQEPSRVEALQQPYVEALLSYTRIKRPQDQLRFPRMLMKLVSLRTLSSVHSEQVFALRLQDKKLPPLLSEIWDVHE
In words: Agonist activity at rat LXRbeta transfected in HEK293T cells at 10 uM incubated for 20 hrs by luciferase reporter gene assay relative to control. In kind it is cell-based. In general terms: Reporter assays use an easily measured gene product as a stand-in for the process of interest.

For the next series, the system named is HEK-293T. In words: Cytotoxicity against HEK293T cells assessed as reduction in cell viability at […] incubated for 24 hrs by MTT assay. As to conditions: human. In kind it is cell-based.
Series [3] in a line: Selectivity index, ratio of compound effect for agonist activity at human LXRalpha to compound effect for agonist activity at […].
Series [4] is filed under the species Mus musculus. In words: Agonist activity at LXR in C57BL/6 mouse PBMC assessed as increase in ABCA1 mRNA expression at 10 uM incubated for 48 hrs by qPCR analysis. A general note: In qPCR the cycle at which signal appears reflects the starting amount.
Series [5] can be described thus: Agonist activity at LXR in C57BL/6 mouse PBMC assessed as increase in sREBP-1c mRNA expression at 10 uM incubated for 48 hrs by qPCR analysis.
Series [6] in a line: Agonist activity at LXR in mouse RAW264.7 cells assessed as increase in sREBP-1c mRNA expression at 10 uM incubated for 48 hrs by qPCR analysis. It is filed as cell-based. As to conditions: raw264.7, 48 h.
For series [7], the system named is HepG2. Nature of the series: Lipid lowering activity in human HepG2 cells assessed as decrease in OA-induced TG accumulation at 10 uM incubated for 24 hrs. In kind it is functional, cell-based.
Series [8] concerns HepG2. In words: Effect on TG accumulation in human HepG2 cells at 10 uM incubated for 24 hrs. It is filed as ADME, cell-based. Particulars: hepg2, 24 h.
In series [9] the target is Liver X receptor (Homo sapiens) (UniProt Q13133+P55055). In words: Agonist activity at LXR in human HepG2 cells assessed as increase in ABCA1 mRNA expression at 10 uM incubated for 24 hrs by qPCR analysis. In kind it is cell-based.
The nature of series [10]: Agonist activity at LXR in mouse 3T3L1 preadipocytes assessed as increase in ABCA1 mRNA expression at 10 uM by qPCR analysis. In kind it is cell-based.
Series [11] can be described thus: Agonist activity at LXR in mouse 3T3L1 preadipocytes assessed as increase in sREBP-1c mRNA expression at 10 uM by qPCR analysis. In kind it is cell-based.
Series [12] deals with T3, Oxysterols receptor LXR-alpha (Homo sapiens) (UniProt Q13133).
T3 sequence (whole entry): T1 sequence (Q13133 whole entry)
Nature of the series: Agonist activity at human LXRalpha transfected in HEK293T cells at 10 uM incubated for 20 hrs in presence of LXR antagonist SR9243 by luciferase reporter gene assay relative to control. It is filed as cell-based.

A further series relates to PBMC. Nature of the series: Anti-atherosclerotic activity in C57BL/6 mouse PBMC assessed as inhibition of ox-LDL induced lipid accumulation at 10 uM incubated for 48 hrs by ORO staining based microscopic analysis. In kind it is functional, cell-based.
Series [13] concerns RAW264.7. In words: Anti-atherosclerotic activity in mouse RAW264.7 cells assessed as inhibition of ox-LDL induced lipid accumulation at 10 uM incubated for 48 hrs by ORO staining based microscopic analysis. In kind it is functional, cell-based.
Series [14] has as its system RAW264.7. In words: Agonist activity at LXR in mouse RAW264.7 cells assessed as increase in ABCA1 mRNA expression at 10 uM incubated for 48 hrs by qPCR analysis. In kind it is cell-based.
Series [15] relates to HepG2. Nature of the series: Cytotoxicity against human HepG2 cells assessed as reduction in cell viability at 2 to 50 uM incubated for 24 hrs by MTT assay. As to conditions: hepg2, 24 h. In kind it is cell-based. (Tetrazolium assays rely on reduction of a dye to a coloured formazan, in cell work by metabolically active cells.)
The test system of series [16] is 3T3-L1. In words: Anti-adipogenic activity in mouse 3T3L1 preadipocytes assessed as decrease in triglyceride accumulation. It is filed as functional, cell-based.
For series [17], the system named is 3T3-L1. In words: Anti-adipogenic activity in mouse 3T3L1 preadipocytes assessed as decrease in lipid accumulation by Oil Red O staining-based microscopic analysis. In kind it is functional, cell-based.
The test system of series [18] is 3T3-L1. In words: Cytotoxicity against mouse 3T3L1 preadipocytes assessed as reduction in cell viability at 2 to 50 uM incubated for 24 hrs by MTT assay. It is filed as cell-based. As to conditions: 3t3-l1, 24 h.
The subject of series [19] is RAW264.7. In words: Cytotoxicity against mouse RAW264.7 cells assessed as reduction in cell viability at 2 to 50 µM incubated for 24 hrs by MTT assay. In kind it is cell-based. Particulars: raw264.7, 24 h.
The test system of series [20] is Mus musculus. Nature of the series: Induction of hepatic steatosis in C57BL/6 mouse assessed as accumulation of serum triglyceride level at 50 mg/kg/day, ig administered for 7 days. It is filed as organism-based. Particulars: in vivo, po, 168 h.
For series [21], the system named is Mus musculus. Nature of the series: Increase in hepatic triglyceride level in high fat diet-induced C57BL/6 mouse model of hypercholesterolemia at 20 mg/kg, po administered for 12 weeks. It is filed as ADME, organism-based. Particulars: in vivo, 2016 h.
Series [22] can be described thus: Toxicity in high fat diet-induced C57BL/6 mouse model of hypercholesterolemia assessed as reduction in liver weight at 20 mg/kg, po administered for 12 weeks by H and E staining-based assay. In kind it is organism-based. As to conditions: in vivo, 2016 h.
Series [23] relates to Mus musculus. In words: Induction of hepatic steatosis in C57BL/6 mouse assessed as accumulation of hepatic triglyceride level at 50 mg/kg/day, ig administered for 7 days. It is filed as organism-based. Particulars: in vivo, po, 168 h.

The source made the active and inactive calls. The rule behind the calls is not given here.

Sequence of Liver X receptor (Homo sapiens) (P55055 whole entry, looked up, one chain of several): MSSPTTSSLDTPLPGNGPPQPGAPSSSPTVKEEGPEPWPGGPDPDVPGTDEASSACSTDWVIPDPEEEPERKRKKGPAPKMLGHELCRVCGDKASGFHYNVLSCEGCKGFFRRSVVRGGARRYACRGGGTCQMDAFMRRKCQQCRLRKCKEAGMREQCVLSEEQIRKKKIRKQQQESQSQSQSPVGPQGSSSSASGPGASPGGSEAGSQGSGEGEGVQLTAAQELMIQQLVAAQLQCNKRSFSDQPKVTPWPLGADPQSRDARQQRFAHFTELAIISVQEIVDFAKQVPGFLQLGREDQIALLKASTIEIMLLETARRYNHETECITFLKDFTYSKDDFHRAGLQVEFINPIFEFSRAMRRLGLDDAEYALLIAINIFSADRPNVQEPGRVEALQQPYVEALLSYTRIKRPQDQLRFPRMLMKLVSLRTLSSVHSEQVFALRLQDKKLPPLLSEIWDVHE

For `CC(=O)O[C@H]1CC[C@@]2(C)C(=CC[C@H]3[C@@H]4CC[C@H]([C@H](C)CCC(=O)C(C)C)[C@@]4(C)CC[C@@H]32)C1`, in series [1], the fold induction at 20 h, 10 µM is 2.63. Besides, in series [2], the fold change (FC) was 3. For the same compound, the Activity result in the series with HEK-293T is “Non-Toxic”. In addition, the Ratio in [3] was 1.14.

On to `O=C(O)Cc1cccc(OCCCN(Cc2cccc(C(F)(F)F)c2Cl)CC(c2ccccc2)c2ccccc2)c1`, for which the fold induction at 20 h, 10 µM in series [1] amounted to 2.19. In series [2], the fold change (FC) came to 2.42. Besides, the Ratio in series [3] stood at 1.11. Also, the outcome (in the series listed under Mus musculus [4]; in [9]) was Active. Also, the Activity result is recorded as “Not Active” in series [5]; “Not Active” in series [6]; “Toxic” in the series on HepG2 [8]; “Active” in series [10]; “Active” in series [11]. Also, the result in the series with HepG2 [7] was inactive.

For the compound `CC(C)C(=O)CC[C@@H](C)[C@H]1CC[C@H]2[C@@H]3CC=C4C[C@@H](O)CC[C@]4(C)[C@H]3CC[C@]12C`, the fold induction at 20 h, 10 µM in series [1] came to 2.36. Also, the fold change (FC) in series [2] came out at 3.85. In addition, the outcome in [12] was inactive. Moreover, the Activity entry is on record as “Non-Toxic” with HEK-293T; “Non-Toxic” in the series on HepG2 [8]; “Non-Toxic” in the series on HepG2 [15]; “Active” in series [10]; “Not Active” in series [11]; “Non-Toxic” with 3T3-L1 [18]. Besides, the Activity result in the series on RAW264.7 [19] is on record as “Non-Toxic”. Also, the Ratio in [3] worked out at 1.63. Also, the inhibition result with PBMC and in the series with RAW264.7 [13] was “Active” throughout. The result (in the series with RAW264.7 [14]; in the series listed under Mus musculus [4]; with HepG2 [7]; in series [9]; in the series on 3T3-L1 [16]; in the series with 3T3-L1 [17]) was Active.

Turning to `O=S(=O)(c1ccccc1)N(CC(F)(F)F)c1ccc(C(O)(C(F)(F)F)C(F)(F)F)cc1` [T091317], the Activity entry (with Mus musculus [20]; in the series with Mus musculus [21]; in series [22]; in the series on Mus musculus [23]) was “Toxic” each time.

These data come from ChEMBL document CHEMBL4359918, “Discovery of tissue selective liver X receptor agonists for the treatment of atherosclerosis without causing hepatic lipogenesis” (Eur J Med Chem, 2019).
